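Cells were grown in 96-well plates and exposed to each compound for 48 hours at five concentrations; endpoints were interpolated linearly between bracketing concentrations, or set to the highest concentration if not reached. The concentration for 50% growth inhibition is given as GI50.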 Active and inactive are the calls of the source. Rule as the data show it: active = GI50 up to about 1.1 µM and inactive = higher.
Experiments:
Test in all cases: inhibition of tumour cell growth, NCI panel, 48 h
BT-549 = tested on: BT-549
LOX IMVI = tested on: LOX IMVI
RXF 393 = tested on: RXF 393
PC-3 = tested on: PC-3
A549 = tested on: A549
Malme-3M = tested on: Malme-3M
IGROV-1 = tested on: IGROV-1
A498 = tested on: A498
SK-MEL-28 = tested on: SK-MEL-28
RPMI-8226 = tested on: RPMI-8226
SF-295 = tested on: SF-295
MDA-N = tested on: MDA-N
SNB-75 = tested on: SNB-75
SK-MEL-2 = tested on: SK-MEL-2
COLO 205 = tested on: COLO 205
MDA-MB-231 = tested on: MDA-MB-231
SK-MEL-5 = tested on: SK-MEL-5
NCI-H226 = tested on: NCI-H226
T47D = tested on: T47D

Measured: GI50

O[C@H]1[C@@H]2OC[C@@H](O)[C@H](OCc3ccccc3)[C@@](COCc3ccccc3)(O2)[C@@H]1OCc1ccccc1
inactive: BT-549 17.7 µM | LOX IMVI 18.5 µM | RXF 393 20.2 µM | PC-3 13.2 µM | A549 17.1 µM | Malme-3M 13.6 µM | IGROV-1 13.9 µM | A498 17.5 µM | SK-MEL-28 14.1 µM | RPMI-8226 10.4 µM | SF-295 12.6 µM | MDA-N 15.4 µM | SNB-75 2.39 µM | SK-MEL-2 15.2 µM | COLO 205 18.2 µM | MDA-MB-231 17 µM

COC(=O)C1CCC(=S)N1C(C)=O (stereo not given)
inactive: BT-549 > 100 µM | RXF 393 > 100 µM | PC-3 > 100 µM | A549 > 100 µM | Malme-3M > 100 µM | IGROV-1 > 100 µM | A498 > 100 µM | SK-MEL-28 > 100 µM | RPMI-8226 > 100 µM | SF-295 > 100 µM | MDA-N > 100 µM | SNB-75 > 100 µM | SK-MEL-2 > 100 µM | COLO 205 > 100 µM | MDA-MB-231 > 100 µM | SK-MEL-5 > 100 µM

N=C(N)NCCCC(NC(=O)c1c2ccccc2nc2ccccc12)C(=O)O (stereo not given)
inactive: BT-549 > 100 µM | LOX IMVI > 100 µM | PC-3 > 100 µM | A549 > 100 µM | IGROV-1 > 100 µM | A498 > 100 µM | SK-MEL-28 > 100 µM | RPMI-8226 > 100 µM | SF-295 > 100 µM | NCI-H226 > 100 µM | MDA-N > 100 µM | SNB-75 > 100 µM | SK-MEL-2 > 100 µM | COLO 205 > 100 µM | MDA-MB-231 > 100 µM | SK-MEL-5 > 100 µM

O=Cc1ccc(OC[C@H]2COC(=O)N2)cc1
inactive: BT-549 > 100 µM | LOX IMVI > 100 µM | RXF 393 > 100 µM | PC-3 > 100 µM | A549 47.9 µM | Malme-3M > 100 µM | IGROV-1 > 100 µM | SK-MEL-28 > 100 µM | SF-295 > 100 µM | NCI-H226 > 100 µM | SNB-75 > 100 µM | T47D > 100 µM | SK-MEL-2 > 100 µM | COLO 205 72.4 µM | MDA-MB-231 > 100 µM | SK-MEL-5 > 100 µM

CN(C)c1ccc(C2C(Cl)C(=O)N2NC(=O)c2c(Cl)c(Cl)c(Cl)c(Cl)c2-c2nc3ccccc3[nH]2)cc1 (stereo not given)
inactive: BT-549 13.6 µM | LOX IMVI 7.4 µM | RXF 393 2.48 µM | PC-3 12.9 µM | A549 31.6 µM | Malme-3M 16.3 µM | IGROV-1 1.62 µM | A498 22.3 µM | SK-MEL-28 28.1 µM | SF-295 42.6 µM | NCI-H226 15.8 µM | MDA-N 5.77 µM | SNB-75 15.6 µM | T47D 6.62 µM | SK-MEL-2 21.8 µM | COLO 205 7.67 µM | SK-MEL-5 16.1 µM

O=C(N/N=C/C=C/c1ccc([N+](=O)[O-])o1)c1ccc(C(=O)N/N=C/C=C/c2ccc([N+](=O)[O-])o2)cc1
inactive: BT-549 > 100 µM | LOX IMVI 28.1 µM | RXF 393 25.9 µM | PC-3 > 30.5 µM | A549 > 100 µM | Malme-3M 12.7 µM | IGROV-1 46.8 µM | A498 > 100 µM | SK-MEL-28 57 µM | RPMI-8226 7.62 µM | SF-295 > 85.5 µM | NCI-H226 > 100 µM | MDA-N 29.5 µM | SNB-75 > 100 µM | T47D > 40.1 µM | SK-MEL-2 > 69.2 µM | COLO 205 36 µM | SK-MEL-5 22.4 µM

O=C(Nc1ccccc1)c1cc2cc(CCl)ccc2oc1=O
inactive: BT-549 > 100 µM | LOX IMVI > 100 µM | RXF 393 33.4 µM | PC-3 > 100 µM | A549 99.3 µM | Malme-3M > 100 µM | IGROV-1 > 100 µM | A498 13 µM | SK-MEL-28 > 100 µM | RPMI-8226 > 100 µM | SF-295 45.5 µM | NCI-H226 > 100 µM | SNB-75 34.7 µM | T47D > 100 µM | SK-MEL-2 4.8 µM | COLO 205 > 100 µM | MDA-MB-231 64.1 µM | SK-MEL-5 > 100 µM

O=C(Nc1ccccc1F)c1cc2ccc(O)cc2o/c1=N\c1cccc(F)c1
inactive: BT-549 15.3 µM | LOX IMVI 9.89 µM | PC-3 18.6 µM | A549 7.98 µM | Malme-3M 21.6 µM | IGROV-1 3.66 µM | A498 18.2 µM | SK-MEL-28 12.3 µM | RPMI-8226 3.24 µM | SF-295 4.3 µM | MDA-N 14.6 µM | T47D 4.25 µM | SK-MEL-2 14.3 µM | COLO 205 29.7 µM | SK-MEL-5 5.22 µM

NCCSc1nc(-c2ccccc2)c(-c2ccccc2)o1
inactive: BT-549 > 100 µM | LOX IMVI > 100 µM | RXF 393 42.2 µM | PC-3 > 100 µM | A549 > 100 µM | Malme-3M > 100 µM | IGROV-1 71.4 µM | A498 > 100 µM | SK-MEL-28 > 100 µM | RPMI-8226 88.3 µM | SF-295 > 100 µM | NCI-H226 > 100 µM | SNB-75 21 µM | T47D 25.2 µM | SK-MEL-2 > 100 µM | COLO 205 > 100 µM | MDA-MB-231 > 100 µM | SK-MEL-5 > 100 µM
